# Literature values as cited in patent US20130237424A1 (Cosmo Oil Co., LTD., priority 2010, published 2013).
# System: plants
# Conditions: given with being dissolved in a solution
smiles,measurement,value
NCC(=O)CCC(=O)O [5-aminolevulinic acid],duration of growth promoting effect,about 2 weeks
